Reference: patent US20240025907A1, “QUINAZOLINE PAN-KRas INHIBITORS” (Mirati Therapeutics, Inc., priority 2022, published 2024)

Columns and labels:
Format in all cases: cell-based
[1] = system: KRas-mediated Phosphorylation of ERK in HCT116 cells; assay: Cisbio HTRF pERK assay, HCT116 cells; conditions: single point at 100 nM; for Inhibition (HTRF % at 100 nM) of KRas-mediated Phosphorylation of ERK, HCT116: HCT116 cells, 0.1 µM; for inhibition at 0.1 µM: Homo sapiens, HCT-116, HCT116 cells
[2] = system: KRas-mediated Phosphorylation of ERK in H460 cells; assay: Cisbio HTRF pERK assay, H460 cells; conditions: single point at 100 nM; for Inhibition (HTRF % at 100 nM) of KRas-mediated Phosphorylation of ERK, H460: H460 cells, 0.1 µM; for inhibition at 0.1 µM: Homo sapiens, NCI-H460, H460 cells
[3] = system: KRas-mediated Phosphorylation of ERK in H358 cells; assay: Cisbio HTRF pERK assay, H358 cells; conditions: single point at 100 nM; for Inhibition (HTRF % at 100 nM) of KRas-mediated Phosphorylation of ERK, H358: H358 cells, 0.1 µM; for inhibition at 0.1 µM: Homo sapiens, NCI-H358, H358 cells
[4] = system: KRas-mediated Phosphorylation of ERK in A549 cells; assay: Cisbio HTRF pERK assay, A549 cells; conditions: single point at 100 nM; for Inhibition (HTRF % at 100 nM) of KRas-mediated Phosphorylation of ERK, A549: A549 cells, 0.1 µM; for inhibition at 0.1 µM: Homo sapiens, A549, A549 cells

For `CCc1c(F)ccc2cc(O)cc(-c3c(F)cc4c(N5CCCn6nc(C(=O)N(C)C)cc6C5)nc(OC[C@@]56CCCN5C[C@H](F)C6)nc4c3F)c12` (atropisomer, axis not shown; (aS)) [Example 63, 5-((R)-7-(8-ethyl-7-fluoro-3-hydroxynaphthalen-1-yl)-6,8-difluoro-2-(((2R,7aS)-2-fluorohexahydro-1H-pyrrolizin-7a-yl)methoxy)quinazolin-4-yl)-N,N-dimethyl-5,6,7,8-tetrahydro-4H-pyrazolo[1,5-a][1,4]diazepine-2-carboxamide], the “Inhibition (HTRF % at 100 nM) of KRas-mediated Phosphorylation of ERK, HCT116” value (shortened to “Inhibition (HTRF % at 100 nM) … HCT116”) [1] was 61% and the “Inhibition (HTRF % at 100 nM) of KRas-mediated Phosphorylation of ERK, H460” value (from here on “Inhibition (HTRF % at 100 nM) … H460”) [2] was 82%.

For `CCc1c(F)ccc2cc(O)cc(-c3c(F)cc4c(N5CCCn6nc(C(=O)N(C)C)cc6C5)nc(OC[C@@]56CCCN5C[C@H](F)C6)nc4c3F)c12` (atropisomer, axis not shown; (aS)) [Example 64, 5-((S)-7-(8-ethyl-7-fluoro-3-hydroxynaphthalen-1-yl)-6,8-difluoro-2-(((2R,7aS)-2-fluorohexahydro-1H-pyrrolizin-7a-yl)methoxy)quinazolin-4-yl)-N,N-dimethyl-5,6,7,8-tetrahydro-4H-pyrazolo[1,5-a][1,4]diazepine-2-carboxamide], the “Inhibition (HTRF % at 100 nM) … HCT116” value [1] was 14% and the “Inhibition (HTRF % at 100 nM) … H460” value [2] was 3%.

In the case of `CCc1c(F)ccc2cc(O)cc(-c3c(F)cc4c(N5CCOC[C@@](C)(O)C5)nc(OC[C@@]56CCCN5C[C@H](F)C6)nc4c3F)c12` (atropisomer, axis not shown; (aS)) [Example 65, (S)-4-((S)-7-(8-ethyl-7-fluoro-3-hydroxynaphthalen-1-yl)-6,8-difluoro-2-(((2R,7aS)-2-fluorohexahydro-1H-pyrrolizin-7a-yl)methoxy)quinazolin-4-yl)-6-methyl-1,4-oxazepan-6-ol], the “Inhibition (HTRF % at 100 nM) … HCT116” value [1] is reported as 16% and the “Inhibition (HTRF % at 100 nM) … H460” value [2] is reported as 1%.

For `CCc1c(F)ccc2cc(O)cc(-c3c(F)cc4c(N5CCOC[C@@](C)(O)C5)nc(OC[C@@]56CCCN5C[C@H](F)C6)nc4c3F)c12` (atropisomer, axis not shown; (aS)) [Example 66, (S)-4-((R)-7-(8-ethyl-7-fluoro-3-hydroxynaphthalen-1-yl)-6,8-difluoro-2-(((2R,7aS)-2-fluorohexahydro-1H-pyrrolizin-7a-yl)methoxy)quinazolin-4-yl)-6-methyl-1,4-oxazepan-6-ol], the “Inhibition (HTRF % at 100 nM) … HCT116” value [1] was 97% and the “Inhibition (HTRF % at 100 nM) … H460” value [2] was 97%.

With `CCc1c(F)ccc2cc(O)cc(-c3c(F)cc4c(N5C[C@@H]6C[C@H](C5)[C@H](O)C6)nc(OC[C@@]56CCCN5C[C@H](F)C6)nc4c3F)c12` (atropisomer, axis not shown; (aS)) [Example 68, (1R,5R,6R)-3-((S)-7-(8-ethyl-7-fluoro-3-hydroxynaphthalen-1-yl)-6,8-difluoro-2-(((2R,7aS)-2-fluorohexahydro-1H-pyrrolizin-7a-yl)methoxy)quinazolin-4-yl)-3-azabicyclo[3.2.1]octan-6-ol] the “Inhibition (HTRF % at 100 nM) … HCT116” value [1] was 8% and the “Inhibition (HTRF % at 100 nM) … H460” value [2] was 14%.

For `CCc1c(F)ccc2cc(O)cc(-c3c(F)cc4c(N5CCC[C@@](C)(O)C5)nc(OC[C@@]56CCCN5C[C@H](F)C6)nc4c3F)c12` (atropisomer, axis not shown; (aS)) [Example 69, (R)-1-((R)-7-(8-ethyl-7-fluoro-3-hydroxynaphthalen-1-yl)-6,8-difluoro-2-(((2R,7aS)-2-fluorotetrahydro-1H-pyrrolizin-7a(5H)-yl)methoxy)quinazolin-4-yl)-3-methylpiperidin-3-ol], the “Inhibition (HTRF % at 100 nM) of KRas-mediated Phosphorylation of ERK, H358” value [3] was 101% and the “Inhibition (HTRF % at 100 nM) of KRas-mediated Phosphorylation of ERK, A549” value [4] was 84%.

With `CCc1c(F)ccc2cc(O)cc(-c3c(F)cc4c(N5CCC[C@@](C)(O)C5)nc(OC[C@@]56CCCN5C[C@H](F)C6)nc4c3F)c12` (atropisomer, axis not shown; (aS)) [Example 70, (R)-1-((S)-7-(8-ethyl-7-fluoro-3-hydroxynaphthalen-1-yl)-6,8-difluoro-2-(((2R,7aS)-2-fluorotetrahydro-1H-pyrrolizin-7a(5H)-yl)methoxy)quinazolin-4-yl)-3-methylpiperidin-3-ol] the “Inhibition (HTRF % at 100 nM) of KRas-mediated Phosphorylation of ERK, H358” value [3] was 24% and the “Inhibition (HTRF % at 100 nM) of KRas-mediated Phosphorylation of ERK, A549” value [4] was 6%.

For `CCc1c(F)ccc2cc(O)cc(-c3c(O)cc4c(N(C)C)nc(OC[C@@]56CCCN5C[C@H](F)C6)nc4c3F)c12` [Example 28, 4-(dimethylamino)-7-(8-ethyl-7-fluoro-3-hydroxynaphthalen-1-yl)-8-fluoro-2-(((2R,7aS)-2-fluorotetrahydro-1H-pyrrolizin-7a(5H)-yl)methoxy)quinazolin-6-ol], the inhibition at 0.1 µM [1] was 9% and the inhibition at 0.1 µM [2] was 8%.

`CCc1c(F)ccc2cc(O)cc(-c3ccc4c(N5CCCC6(CNC(=O)N6)C5)nc(OCC5(CN(C)C)CC5)nc4c3F)c12` (centres unmarked) [Example 36, 7-(2-((1-((dimethylamino)methyl)cyclopropyl)methoxy)-7-(8-ethyl-7-fluoro-3-hydroxynaphthalen-1-yl)-8-fluoroquinazolin-4-yl)-1,3,7-triazaspiro[4.5]decan-2-one] showed an inhibition at 0.1 µM [1] of -22% and an inhibition at 0.1 µM [2] of 25%.

In the case of `CCc1c(F)ccc2cc(O)cc(-c3ccc4c(N5CCCC6(CNS(=O)(=O)N6)C5)nc(OCC5(CN(C)C)CC5)nc4c3F)c12` (centres unmarked) [Example 37, 7-(2-((1-((dimethylamino)methyl)cyclopropyl)methoxy)-7-(8-ethyl-7-fluoro-3-hydroxynaphthalen-1-yl)-8-fluoroquinazolin-4-yl)-2-thia-1,3,7-triazaspiro[4.5]decane 2,2-dioxide], the inhibition at 0.1 µM [1] is reported as 0% and the inhibition at 0.1 µM [2] is reported as 28%.

With `CCc1c(F)ccc2cc(O)cc(-c3ccc4c(N5CCCC6(CC(=O)N6)C5)nc(OCC5(CN(C)C)CC5)nc4c3F)c12` (centres unmarked) [Example 38, 6-(2-((1-((dimethylamino)methyl)cyclopropyl)methoxy)-7-(8-ethyl-7-fluoro-3-hydroxynaphthalen-1-yl)-8-fluoroquinazolin-4-yl)-1,6-diazaspiro[3.5]nonan-2-one] the inhibition at 0.1 µM [3] was 16% and the inhibition at 0.1 µM [4] was 9%.

Work on `CCc1c(F)ccc2cc(O)cc(-c3ccc4c(N5CC6C(=O)NC(=O)C6C5)nc(OCC5(CN(C)C)CC5)nc4c3F)c12` (centres unmarked) [Example 39, 5-(2-((1-((dimethylamino)methyl)cyclopropyl)methoxy)-7-(8-ethyl-7-fluoro-3-hydroxynaphthalen-1-yl)-8-fluoroquinazolin-4-yl)tetrahydropyrrolo[3,4-c]pyrrole-1,3(2H,3aH)-dione] yielded an inhibition at 0.1 µM [1] of 3% and an inhibition at 0.1 µM [2] of 11%.

`CCc1c(F)ccc2cc(O)cc(-c3ccc4c(N5CCCn6nncc6C5)nc(OC[C@@]56CCCN5C[C@H](F)C6)nc4c3F)c12` [Example 44] showed an inhibition at 0.1 µM [3] of 3% and an inhibition at 0.1 µM [4] of -9%.

`O=S1(=O)NCC2(CCCN(c3nc(OC[C@@]45CCCN4C[C@H](F)C5)nc4c(F)c(-c5cc(O)cc6ccc(F)c(Cl)c56)c(F)cc34)C2)N1` (stereo partly drawn) [Example 45, 7-(7-(8-chloro-7-fluoro-3-hydroxynaphthalen-1-yl)-6,8-difluoro-2-(((2R,7aS)-2-fluorotetrahydro-1H-pyrrolizin-7a(5H)-yl)methoxy)quinazolin-4-yl)-2-thia-1,3,7-triazaspiro[4.5]decane 2,2-dioxide] gave an inhibition at 0.1 µM [1] of 86% and an inhibition at 0.1 µM [2] of 94%.

Work on `CCc1c(F)ccc2cc(O)cc(-c3c(F)cc4c(N5CCCC6(CC(=O)N6)C5)nc(OCC5(CN(C)C)CC5)nc4c3F)c12` (centres unmarked) [Example 51, 6-(2-((1-((dimethylamino)methyl)cyclopropyl)methoxy)-7-(8-ethyl-7-fluoro-3-hydroxynaphthalen-1-yl)-6,8-difluoroquinazolin-4-yl)-1,6-diazaspiro[3.5]nonan-2-one] yielded an inhibition at 0.1 µM [3] of 67% and an inhibition at 0.1 µM [4] of 6%.

In the case of `CCc1c(F)ccc2cc(O)cc(-c3c(F)cc4c(N5CC6C(=O)NC(=O)C6C5)nc(OCC5(CN(C)C)CC5)nc4c3F)c12` (centres unmarked) [Example 52, 5-(2-((1-((dimethylamino)methyl)cyclopropyl)methoxy)-7-(8-ethly-7-fluoro-3-hydroxynaphthalen-1-yl)-6,8-difluoroquinazolin-4-yl)tetrahydropyrrolo[3,4-c]pyrrole-1,3(2H,3aH)-dione], the inhibition at 0.1 µM [3] is reported as 6% and the inhibition at 0.1 µM [4] is reported as 33%.

`CCc1c(F)ccc2cc(O)cc(-c3c(F)cc4c(N5CCCC6(CC(O)C6)C5)nc(OCC5(CN(C)C)CC5)nc4c3F)c12` (centres unmarked) [Example 53, 6-(2-((1-((dimethylamino)methyl)cyclopropyl)methoxy)-7-(8-ethyl-7-fluoro-3-hydroxynaphthalen-1-yl)-6,8-difluoroquinazolin-4-yl)-6-azaspiro[3.5]nonan-2-ol] showed an inhibition at 0.1 µM [3] of 40% and an inhibition at 0.1 µM [4] of 27%.

Molecule `CCc1c(F)ccc2cc(O)cc(-c3c(F)cc4c(N5CCCC6(C5)NC(=O)NC6=O)nc(OCC5(CN(C)C)CC5)nc4c3F)c12` (centres unmarked) [Example 54, 7-(2-((1-((dimethylamino)methyl)cyclopropyl)methoxy)-7-(8-ethyl-7-fluoro-3-hydroxynaphthalen-1-yl)-6,8-difluoroquinazolin-4-yl)-1,3,7-triazaspiro[4.5]decane-2,4-dione] has an inhibition at 0.1 µM [3] of 100% and an inhibition at 0.1 µM [4] of 61%.

Molecule `CCc1c(F)ccc2cc(O)cc(-c3c(F)cc4c(N5CCCn6nc(C(=O)N(C)C)cc6C5)nc(OCC5(CN(C)C)CC5)nc4c3F)c12` [Example 55, 5-(2-((1-((dimethylamino)methyl)cyclopropyl)methoxy)-7-(8-ethyl-7-fluoro-3-hydroxynaphthalen-1-yl)-6,8-difluoroquinazolin-4-yl)-N,N-dimethyl-5,6,7,8-tetrahydro-4H-pyrazolo[1,5-a][1,4]diazepine-2-carboxamide] has an inhibition at 0.1 µM [3] of 2% and an inhibition at 0.1 µM [4] of -13%.
